Test [1] has as its system LPS-induced acute lung injury mouse model. The test can be described thus: LPS-induced acute lung injury model in mouse (Example 7). In kind it is in vivo, mice. As to conditions: 4 h after LPS, 5 mg/kg i.p. Here is the method: The effect of the peptides of the current invention on acute lung injury can be assessed in an LPS-induced acute lung injury mouse model by monitoring outcomes such as lung weight, fluid accumulation, cytokine secretion in blood or bronchoalveolar lavage fluid (BALF). Acute lung injury was induced in male C57BL/6 mice (6 to 8 weeks old) by intratracheal administration of 40 μL lipopolysaccharide (LPS) (Sigma Aldrich, St. Louis, Mo.) in PBS at 5 mg/kg. Control animals received intratracheal PBS alone. Animals (n=8 per treatment group) induced with LPS received intraperitoneal treatment with: PBS (vehicle control) or test peptides at 5 mg/kg in water. Treatments were administered 1 h prior to LPS. At 4 h post LPS administration, tissues were harvested. Lungs were weighed, flushed with Hanks Buffer to provide bronchoalveolar lavage fluid (BALF). Data for test peptides were compared to the vehicle control group. Table 11 compares the lung weights following LPS induction and treatment with PBS (vehicle control) or peptides. Table 12 compares the levels of pro-inflammatory cytokines in BALF following LPS induction and treatment with PBS (vehicle control) or peptides.

Test [2] concerns the target T1, Apelin Receptor (APJ) (Homo sapiens, UniProt P35414).
T1 construct: host or cells: CHO-K1 AGTRL1 Gi cells
T1 sequence (P35414 1-380): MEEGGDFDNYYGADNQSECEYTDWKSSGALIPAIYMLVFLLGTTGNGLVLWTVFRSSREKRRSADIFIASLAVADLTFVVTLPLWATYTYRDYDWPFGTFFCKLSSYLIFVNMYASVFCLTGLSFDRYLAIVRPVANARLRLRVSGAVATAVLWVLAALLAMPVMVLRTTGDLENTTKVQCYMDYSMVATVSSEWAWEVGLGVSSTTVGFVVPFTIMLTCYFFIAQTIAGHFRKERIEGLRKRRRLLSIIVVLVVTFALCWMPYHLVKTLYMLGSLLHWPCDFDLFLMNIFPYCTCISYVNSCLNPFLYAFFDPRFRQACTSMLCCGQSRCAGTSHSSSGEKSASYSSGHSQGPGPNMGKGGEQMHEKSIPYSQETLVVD
The test can be described thus: Phosphorylation of MEK1 in cultured cells overexpressing APJ. In kind it is cell-based. As to conditions: 5 min, 100 nM Pyr-Apelin-13 = positive control, acetate salts. The protocol:
Peptides were initially prepared as 100× stocks in H2O. […] Following a 5 min incubation, the supernatant was removed and the cells were placed on ice and washed twice with cold HBSS. The HBSS was removed and the cells were immediately lysed in 300 μl/well of 1× lysis buffer (CST 10× Lysis Buffer; Cell Signaling Technology; Danvers, Mass.); lysis buffer was supplemented with 1 mM PMSF (Millipore-Sigma; Saint Louis, Mo.) and Halt Protease/Phosphatase Inhibitor Cocktail (Thermo-Fisher; Waltham, Mass.) prior to use. The samples were then placed on ice for 10 min, the wells were scraped and lysates were centrifuged at 12,500 rpm for 10 min at 4° C., and p-MEK expression in each sample was measured using Phospho-MEK1 (Ser217/221) Sandwich ELISA kit according to manufacturer's instructions (Cell Signaling Technology; Danvers, Mass.). Absorbance was measured using a Cytation 3 plate reader at […] (BioTek; Winooski, Vt.). […] Each data point represents the average of duplicate assays.

For test [3], the target named is T1, Apelin Receptor (APJ). As to the kind of experiment: Phosphorylation of ERK1/2 in cultured cells overexpressing APJ. The format is cell-based. The following applies: 5 min, 100 nM Pyr-Apelin-13 = positive control, acetate salts. The protocol: The effect of the peptides of the current invention on activation of Apelin Receptor (APJ)-mediated signaling can be assessed using an assay to monitor phospho-ERK/phospho-p44/42 MAPK (p-ERK1/2) levels in cultured cells overexpressing Apelin Receptor (APJ) such as CHO-K1, derived from Chinese hamster ovary. Peptides were initially prepared as 100× stocks in H2O. […] Following a 5 min incubation the supernatant was removed and the cells were placed on ice and washed twice with cold HBSS. The HBSS was removed and the cells were immediately lysed in 300 μl/well of 1× lysis buffer (CST 10× Lysis Buffer; Cell Signaling Technology; Danvers, Mass.); lysis buffer was supplemented with 1 mM PMSF (Millipore-Sigma; Saint Louis, Mo.) and Halt Protease/Phosphatase Inhibitor Cocktail (Thermo-Fisher; Waltham, Mass.) prior to use. The samples were then placed on ice for 10 min, wells were scraped and lysates transferred to microfuge tubes. The samples were centrifuged at 12,500 rpm for 10 min at 4° C. and p-ERK1/2 expression in each sample was measured using Phospho-p44/42 MAPK (Thr202/Tyr204) Sandwich ELISA kit according to manufacturer's instructions (Cell Signaling Technology; Danvers, Mass.). Absorbance was measured using a Cytation 3 plate reader at […] (BioTek; Winooski, Vt.). […] Each data point represents the average of duplicate assays.

Marks after values point to notes of the source that are not given here.

For “(PEG12)KRRLLGLVFQSLCG(dA) (KRRLLGLVFQSLCGA; N-terminal PEG12; C-terminal D-alanine; (1)..(1) PEG12; (15)..(15) D-Ala) [SEQ ID NO: 37]”, the “Mean (SEM) Lung Weight” value in test [1] is listed as 0.259 (0.004)*** g. Besides, in test [1] (BALF), the “Pro-inflammatory Cytokine Level IFNγ” value turned out to be 0.13 pg/mL, the “Pro-inflammatory Cytokine Level IL-1β” value turned out to be 72.5 pg/mL, the “Pro-inflammatory Cytokine Level IL-2” value is 0.60 pg/mL and the “Pro-inflammatory Cytokine Level IL-4” value turned out to be 0.86 pg/mL. Also, in test [1] (BALF), the “Pro-inflammatory Cytokine Level IL-6” value is 3080 pg/mL, the “Pro-inflammatory Cytokine Level IL-9” value was determined as 4.74 pg/mL, the “Pro-inflammatory Cytokine Level KC/GRO” value turned out to be 2660 pg/mL and the “Pro-inflammatory Cytokine Level TNFα” value is 3850 pg/mL. Also, the “pMEK1 (% of Positive Control)” value with Apelin Receptor (APJ) [2] (2.0 μM peptide) was 8.7%. Further, the “pMEK1 (% of Positive Control)” value with Apelin Receptor (APJ) [2] (10 μM peptide) is on record as 45.5%. For the same substance, the “pMEK1 (% of Positive Control)” value with Apelin Receptor (APJ) [2] (50 μM peptide) was determined as 79.4%. Further, the “pERK1/2 (% of Positive Control)” value with Apelin Receptor (APJ) [3] (0.4 μM peptide) came to 9.9%. The “pERK1/2 (% of Positive Control)” value with Apelin Receptor (APJ) [3] (2.0 μM peptide) stood at 27.3%. The “pERK1/2 (% of Positive Control)” value with Apelin Receptor (APJ) [3] (10 μM peptide) was found to be 54.2%. Also, the “pERK1/2 (% of Positive Control)” value with Apelin Receptor (APJ) [3] (50 μM peptide) was determined as 88.4%.

The values above are taken from patent US20230218710A1, “METHOD OF TREATING CORONAVIRUS INFECTIONS” (priority 2020, published 2023).
